The target of the assay is T1, hM5 (Homo sapiens, UniProt P08912).
T1 construct: expressed in transfected cells
T1 sequence (P08912 1-532): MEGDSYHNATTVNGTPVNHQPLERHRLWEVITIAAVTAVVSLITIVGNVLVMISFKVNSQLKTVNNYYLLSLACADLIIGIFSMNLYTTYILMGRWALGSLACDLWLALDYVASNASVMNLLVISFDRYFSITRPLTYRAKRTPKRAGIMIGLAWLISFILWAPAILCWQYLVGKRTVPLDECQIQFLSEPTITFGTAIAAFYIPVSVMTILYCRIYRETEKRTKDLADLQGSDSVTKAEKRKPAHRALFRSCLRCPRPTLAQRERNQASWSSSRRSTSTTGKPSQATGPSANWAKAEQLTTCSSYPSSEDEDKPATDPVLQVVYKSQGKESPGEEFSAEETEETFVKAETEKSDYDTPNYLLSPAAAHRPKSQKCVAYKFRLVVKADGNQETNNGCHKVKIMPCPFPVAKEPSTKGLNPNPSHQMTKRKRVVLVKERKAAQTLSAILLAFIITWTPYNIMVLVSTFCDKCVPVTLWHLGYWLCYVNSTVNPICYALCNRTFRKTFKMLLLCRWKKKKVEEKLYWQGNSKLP
As to the kind of experiment: Calcium mobilization concentration-response (IC50 vs EC80 acetylcholine), CHO hM5. Conditions: CELL LINE hM5; vs EC80 acetylcholine; read-out: IC50. The format is cell-based. In a few lines:
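CHO cells stably expressing hM5, dye-loaded, in HBSS/20 mM HEPES/2.5 mM probenecid, pH 7.4. Compounds were pre-incubated 140 s before an EC80 acetylcholine challenge, with calcium flux read kinetically.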

For the compound `Cc1ncc(S(=O)(=O)N2CCC(c3cc(F)c4ncnn4c3)CC2)n1C` [Compound 467, 6-(1-((1,2-dimethyl-1H-imidazol-5-yl)sulfonyl)piperidin-4-yl)-8-fluoro-[1,2,4]triazolo[1,5-a]pyridine], the IC50 came to 4140 nM.
Next, `Cc1cc2ncnn2cc1C1=C(C#N)CN(S(=O)(=O)c2cnn(C)c2C)CC1` [Compound 468, 1-((1,5-dimethyl-1H-pyrazol-4-yl)sulfonyl)-4-(7-methyl-[1,2,4]triazolo[1,5-a]pyridin-6-yl)-1,2,5,6-tetrahydropyridine-3-carbonitrile]: 1630 nM; `Cc1cc2ncnn2cc1C1=C(C#N)CN(S(=O)(=O)c2cnn(C)c2Cl)CC1` [Compound 469, 1-((5-chloro-1-methyl-1H-pyrazol-4-yl)sulfonyl)-4-(7-methyl-[1,2,4]triazolo[1,5-a]pyridin-6-yl)-1,2,5,6-tetrahydropyridine-3-carbonitrile]: 1640 nM; `Cc1cc2ccnn2cc1C1CCN(S(=O)(=O)c2cnn(C)c2Cl)CC1` [Compound 470, 6-(1-((5-chloro-1-methyl-1H-pyrazol-4-yl)sulfonyl)piperidin-4-yl)-5-methylpyrazolo[1,5-a]pyridine]: 94 nM.
Next, `Cc1c(S(=O)(=O)N2CCC(c3cn4ncnc4cc3C(=O)N(C)C)CC2)cnn1C` [Compound 471, 6-(1-((1,5-dimethyl-1H-pyrazol-4-yl)sulfonyl)piperidin-4-yl)-N,N-dimethyl-[1,2,4]triazolo[1,5-a]pyridine-7-carboxamide]: over 10000 nM.
For `Cc1c(S(=O)(=O)N2CCC(c3cn4ncnc4cc3C(C)(C)O)CC2)cnn1C` [Compound 472, 2-(6-(1-((1,5-dimethyl-1H-pyrazol-4-yl)sulfonyl)piperidin-4-yl)-[1,2,4]triazolo[1,5-a]pyridin-7-yl)propan-2-ol], the IC50 is over 10000 nM.
On to `[2H]C1([2H])CC(c2cn3ncnc3c(F)c2C)CC([2H])([2H])N1S(=O)(=O)c1cnn(C)c1C(F)F` [Compound 474, 6-(1-((5-(Difluoromethyl)-1-methyl-1H-pyrazol-4-yl)sulfonyl)piperidin-4-yl-2,2,6,6-d4)-8-fluoro-7-methyl-[1,2,4]triazolo[1,5-a]pyridine], for which the IC50 turned out to be 11 nM.
To `[2H]C1([2H])CC(c2cn3ncnc3cc2F)CC([2H])([2H])N1S(=O)(=O)c1c(C)nn(C)c1Cl` [Compound 475, 6-(1-((5-chloro-1,3-dimethyl-1H-pyrazol-4-yl)sulfonyl)piperidin-4-yl-2,2,6,6-d4)-7-fluoro-[1,2,4]triazolo[1,5-a]pyridine] belongs 96 nM.
Next, `[2H]C1([2H])CC(c2cn3ncnc3cc2F)CC([2H])([2H])N1S(=O)(=O)c1cnn(C)c1C(F)F` [Compound 476, 6-(1-((5-(difluoromethyl)-1-methyl-1H-pyrazol-4-yl)sulfonyl)piperidin-4-yl-2,2,6,6-d4)-7-fluoro-[1,2,4]triazolo[1,5-a]pyridine]: 92 nM.
To `[2H]C1([2H])CC(c2cn3ncnc3cc2F)CC([2H])([2H])N1S(=O)(=O)c1cnn2c1CCC2` [Compound 478, 6-(1-((5,6-dihydro-4H-pyrrolo[1,2-b]pyrazol-3-yl)sulfonyl)piperidin-4-yl-2,2,6,6-d4)-7-fluoro-[1,2,4]triazolo[1,5-a]pyridine] belongs 20 nM; to `Cc1c(S(=O)(=O)N2CCC(c3cn4ncnc4cc3C(=O)O)CC2)cnn1C` [Compound 479, 6-(1-((1,5-dimethyl-1H-pyrazol-4-yl)sulfonyl)piperidin-4-yl)-[1,2,4]triazolo[1,5-a]pyridine-7-carboxylic acid], over 10000 nM.
For `Cc1ncc(S(=O)(=O)N2CCC(c3ccc4ncnn4c3)CC2)s1` [Compound 480, 5-((4-([1,2,4]triazolo[1,5-a]pyridin-6-yl)piperidin-1-yl)sulfonyl)-2-methylthiazole], the IC50 was over 10000 nM.
To `Cc1cc2ccnn2cc1C1CCN(S(=O)(=O)c2cnn(C)c2C#N)CC1` [Compound 481, 1-methyl-4-((4-(5-methylpyrazolo[1,5-a]pyridin-6-yl)piperidin-1-yl)sulfonyl)-1-pyrazole-5-carbonitrile] belongs 303 nM.
Next, `Cn1ncc(S(=O)(=O)N2CCC(c3cn4ncnc4cc3C(F)F)CC2)c1C#N` [Compound 482, 4-((4-(7-(difluoromethyl)-[1,2,4]triazolo[1,5-a]pyridin-6-yl)piperidin-1-yl)sulfonyl)-1-methyl-1H-pyrazole-5-carbonitrile]: 61 nM; `Cc1cc(S(=O)(=O)N2CCC(c3cn4ncnc4cc3Cl)CC2)sn1` [Compound 483, 5-((4-(7-chloro-[1,2,4]triazolo[1,5-a]pyridin-6-yl)piperidin-1-yl)sulfonyl)-3-methylisothiazole]: 6 nM.
Next, `Cc1cc(S(=O)(=O)N2CCC(c3cn4ncnc4c(F)c3C)CC2)sn1` [Compound 485, 5-((4-(8-fluoro-7-methyl-[1,2,4]triazolo[1,5-a]pyridin-6-yl)piperidin-1-yl)sulfonyl)-3-methylisothiazole]: 17 nM; `Cc1ncc(S(=O)(=O)N2CCC(c3cn4ncnc4c(F)c3C)CC2)o1` [Compound 486, 5-((4-(8-fluoro-7-methyl-[1,2,4]triazolo[1,5-a]pyridin-6-yl)piperidin-1-yl)sulfonyl)-2-methyloxazole]: 318 nM; `Cc1cc(S(=O)(=O)N2CCC(c3nn4ncnc4cc3C)CC2)sn1` [Compound 487, 3-methyl-5-((4-(7-methyl-[1,2,4]triazolo[1,5-b]pyridazin-6-yl)piperidin-1-yl)sulfonyl)isothiazole]: 343 nM.
As to `Cc1ncc(S(=O)(=O)N2CCC(c3nn4ncnc4cc3C)CC2)o1` [Compound 488, 2-methyl-5-((4-(7-methyl-[1,2,4]triazolo[1,5-b]pyridazin-6-yl)piperidin-1-yl)sulfonyl)oxazole], the IC50 was 6350 nM.
Regarding `Cn1ncc(S(=O)(=O)N2CC=C(c3c4ccccc4nn3C)CC2)c1Cl` [Compound 489, 3-(1-((5-chloro-1-methyl-1H-pyrazol-4-yl)sulfonyl)-1,2,3,6-tetrahydropyridin-4-yl)-2-methyl-2H-indazole], the IC50 worked out at 1290 nM.
Take `Cn1ncc(S(=O)(=O)N2CC=C(c3c4ccccc4nn3C)CC2)c1C#N` [Compound 490, 1-methyl-4-((4-(2-methyl-2H-indazol-3-yl)-3,6-dihydropyridin-1(2H)-yl)sulfonyl)-1H-pyrazole-5-carbonitrile]: the half-inhibitory concentration (IC50) is 7300 nM.
Next, `Cc1cc(S(=O)(=O)N2CCC(c3cn4ncnc4cc3C)CC2)sn1` [Compound 491, 3-methyl-5-((4-(7-methyl-[1,2,4]triazolo[1,5-a]pyridin-6-yl)piperidin-1-yl)sulfonyl)isothiazole]: 6 nM; `Cc1ncc(S(=O)(=O)N2CCC(c3cn4ncnc4cc3C)CC2)o1` [Compound 492, 2-methyl-5-((4-(7-methyl-[1,2,4]triazolo[1,5-a]pyridin-6-yl)piperidin-1-yl)sulfonyl)oxazole]: 76 nM.
To `CCc1cc2ncnn2cc1C1CCN(S(=O)(=O)c2cc(C)ns2)CC1` [Compound 493, 5-((4-(7-ethyl-[1,2,4]triazolo[1,5-a]pyridin-6-yl)piperidin-1-yl)sulfonyl)-3-methylisothiazole] belongs 65 nM; to `Cc1cc(S(=O)(=O)N2CCC(c3cn4ncnc4cc3C(F)F)CC2)sn1` [Compound 494, 5-((4-(7-(difluoromethyl)-[1,2,4]triazolo[1,5-a]pyridin-6-yl)piperidin-1-yl)sulfonyl)-3-methylisothiazole], 21 nM; to `Cc1cc(S(=O)(=O)N2CCC(c3cn4ncnc4cc3C(F)(F)F)CC2)sn1` [Compound 495, 3-methyl-5-((4-(7-(trifluoromethyl)-[1,2,4]triazolo[1,5-a]pyridin-6-yl)piperidin-1-yl)sulfonyl)isothiazole], 46 nM.
To `CCc1cc2ncnn2cc1C1CCN(S(=O)(=O)c2cnc(C)o2)CC1` [Compound 496, 5-((4-(7-ethyl-[1,2,4]triazolo[1,5-a]pyridin-6-yl)piperidin-1-yl)sulfonyl)-2-methyloxazole] belongs 889 nM.
Regarding `Cc1ncc(S(=O)(=O)N2CCC(c3cn4ncnc4cc3C(F)F)CC2)o1` [Compound 497, 5-((4-(7-(difluoromethyl)-[1,2,4]triazolo[1,5-a]pyridin-6-yl)piperidin-1-yl)sulfonyl)-2-methyloxazole], the IC50 is 141 nM.
To `Cc1ncc(S(=O)(=O)N2CCC(c3cn4ncnc4cc3C(F)(F)F)CC2)o1` [Compound 498, 2-methyl-5-((4-(7-(trifluoromethyl)-[1,2,4]triazolo[1,5-a]pyridin-6-yl)piperidin-1-yl)sulfonyl)oxazole] belongs 496 nM; to `Cc1cc2ncnn2cc1C1CCN(S(=O)(=O)c2conc2C)CC1` [Compound 499, 3-methyl-4-((4-(7-methyl-[1,2,4]triazolo[1,5-a]pyridin-6-yl)piperidin-1-yl)sulfonyl)isoxazole], 4510 nM; to `Cc1cc(S(=O)(=O)N2CCC(c3cn4ncnc4cc3F)CC2)sn1` [Compound 500, 5-((4-(7-fluoro-[1,2,4]triazolo[1,5-a]pyridin-6-yl)piperidin-1-yl)sulfonyl)-3-methylisothiazole], 295 nM.

Broadly, the IC50 is the point on the concentration scale where inhibition reaches its midpoint.
